# In patent US20090179638A1, “ASSAY FOR IDENTIFYING INHIBITORS OF NEURONAL APOPTOTIC PATHWAYS” (AEGERA THERAPEUTICS INC., priority 2006, published 2009):
# Entries after “also recorded” stand apart in the source; their conditions may differ.
# Key:
# [1] = system: HSP90; test: ATP-Sepharose interaction assay; type: binding; settings: purified HSP90 pre-incubated with substance
# Method: Bound HSP90 was eluted HSP90 content was determined by immunoblotting.
# ATP-Sepharose Interaction Assays. These were performed essentially as described in (Grenert et al., 1997). […] 25 ul of ATP-sepharose beads were added and the reactions were incubated for 30 min at 30° C. After thorough washing with ice-cold incubation buffer, bound proteins were eluted in sample buffer and HSP90 content was determined by immunoblotting.
# [2] = system: HSP70; test: HSP protein expression in PC12 / PC12rtTA cells (immunoblot); type: cell-based; settings: PC12rtTA cells infected with AdNRG, Adp75 or AdLacZ, 30 hours (FIG. 6A)
# Method: FIGS. 4A-4C are photographs of Western blots which illustrate that compound 1 treatment of PC12 cells induces expression of HSP70. A: PC12 cells were infected with 5 MOI of AdNRG (NRG) or AdLacZ (LacZ) as indicated. Cells were left untreated (0) or treated with 40 μM compound 1 at time of infection (30), one hour before lysis (1), or at both times (30+1). Cells were lysed thirty hours after infection, normalized for protein content, and analyzed for levels of phospho-Ser^63 c-Jun and total c-Jun, total JNK, IkBα, and NRAGE by immunoblotting. Lysates from untreated cells are indicated by ‘−’. B: PC12 cells were treated with the indicated concentrations of compound 1 for 18 hours and then lysed, normalized for protein content, and analyzed for levels of HSP70 by immunoblotting. Lysates from untreated cells are indicated by ‘−’. C: RNA isolated from PC12^rtTA cells treated with increasing concentrations of compound 1 for 18 hours was analyzed by rtPCR using primers specific to HSP70, HSP25, HSP90 or actin, as indicated. Experiments in Panel A and B were performed three times and that in Panel C was performed twice, with essentially identical results. D: PC12^rtTA cells were infected with AdNRG at 5 MOI, Adp75 at 50 MOI, or the control virus AdLacZ at 50 MOI. At time of infection, the cells were treated with increasing concentrations of compound 1, or with vehicle alone, as indicated. Thirty hours after infection, cells were lysed, normalized for protein content, and analyzed for levels of c-Jun phosphorylation, HSP70, HSP25, HSP40, NRAGE, p75NTR, JNK-1 and IkBα, as indicated.
# FIGS. 6A, 6B and 6C are graphs and photographs of Western blots which illustrate that compound 1 analogues inhibit JNK activation and induce expression of HSP70. A: PC12^rtTA cells were infected with 5 MOI of AdNRG, 50 MOI of Adp75 or 50 MOI of the control virus AdLacZ. At time of infection, the cells were treated with an increasing concentrations of compound 1, or its analogues, compound 2, compound 3, compound 4, or with vehicle alone, as indicated. Thirty hours after infection, cells were lysed, normalized for protein levels, and analyzed for levels of HSP70, HSP25 and JNK-1, as indicated. B: PC12^rtTA cells were treated as above and after 40 hours infection were assayed for death using the lactate dehydrogenase (LDH) assay. Results are normalized relative to those obtained with 1% Triton, and represent the mean±standard deviation of a representative experiment performed in triplicate (*=P<0.025 relative to ‘0’ for each compound concentration). C: PC12^rtTA cells were infected with 50 MOI of LacZ or 5 MOI of AdNRG50 and at the time of infection, were treated with 40 μM compound 1, or its analogues, compound 2, compound 3, compound 4, or with vehicle alone, as indicated. Thirty hours after infection, cells were lysed, normalized for protein levels, and were analyzed for phosphorylated c-Jun, total c-Jun, NRAGE and JNK-1, as indicated. Experiments in Panel A and C were performed twice and that in B were performed twice, with essentially identical results.
# To address this, SCG neurons were treated with compound 1 for 18 hours then lysed and assessed for HSP70 levels by immunoblot. Uninfected PC12rtTA cells were treated in a similar manner. […] To test if the accumulation of HSP70 induced by compound 1 reflected increased steady state levels of its mRNA, RNA was isolated from PC12 cells treated with increasing concentrations of compound 1 for 18 hours and the cell lysates subjected to semi-quantitative rtPCR. […] HSP protein levels were also assessed in PC12rtTA cells infected with AdLacZ, Adp75, or AdNRG, and at the same time, exposed to compound 1.
# [3] = system: PC12^rtTA cells; test: p75NTR- or NRAGE-induced cell death of PC12rtTA cells (LDH release assay); type: cell-based; settings: increasing concentrations, 40 hours, LDH
# Method: FIGS. 2A and 2B are graphs showing that compound 1 inhibits p75NTR or NRAGE induced JNK activation and cell death. Compound 1 inhibits NRAGE (A) or p75NTR (B) mediated cell death. PC12^rtTA cells were infected with recombinant adenoviruses expressing full-length NRAGE (AdNRG) at 5 MOI, full length p75NTR (Adp75) at 50 or 100 MOI, or the control protein β-galactosidase (AdLacZ) (at 5 MOI in (A) and 50 MOI in (B)). At time of infection, the cells were treated with an increasing concentration of compound 1, or with vehicle alone, as indicated. After 40 hours, cells were assayed for death using the lactate dehydrogenase (LDH) assay; untreated cells (Un) and cells treated with 1% Triton X-100 (Tx) were used to delineate the output range of the assay. Results are normalized relative to those obtained with 1% Triton (Tx), and represent the mean±standard deviation of a representative experiment performed in triplicate (*=P<0.005 relative to no compound 1).
# PC12^rtTA were infected with adenoviruses encoding p75NTR (Adp75), NRAGE (AdNRG), or as a control, LacZ (AdLacZ), and were concurrently exposed to increasing concentrations of compound 1 for a period of 40 hours. Cell death was assessed using an LDH release assay. […] Treatment with 40 μM compound 1 reduced p75NTR- or NRAGE-induced cell death by greater than 90%.
# (§1) Cell culture, infection, transfection and immunoblotting. Sympathetic neurons were maintained and deprived of NGF as previously described (Bamji et al., 1998; Ma et al., 1992). PC12^rtTA cells were maintained and infected as previously described (Majdan et al., 1997; Salehi et al., 2002); for NRAGE, […] doxycycline was added to all plates at time of infection. Wildtype and HSF1 nullizygous immortalized mouse embryonic fibroblasts (MEFs) were maintained in DMEM containing 10% fetal calf serum, 1 μM β-mercaptoethanol, 1% non-essential amino acids, 1% L-glutamine, 1% antimycotic solution and 1% sodium pyruvate (all from GibcoBRL). Sympathetic neuron survival was assessed using the MTS assay according to the manufacturer's instructions (Promega). Analysis of PC12 cell death was determined using a lactate dehydrogenase (LDH) assay (Roche) as per the manufacturer's instructions. Transfections using plasmids or RNAi were performed using Lipofectamine 2000. Immunoblotting was performed as previously described (Majdan et al., 1997; Salehi et al., 2002).
# [4] = system: SCG neurons; test: NGF-withdrawal induced cell death of SCG neurons (MTS assay); type: cell-based, rat; settings: SCG neurons withdrawn from NGF, 48 hours
# Method: FIG. 1 is a graph showing that compound 1 inhibits NGF-withdrawal induced cell death. Cultures of rat SCG neurons (see Materials and Methods) initially maintained in 10 ng/ml of NGF were withdrawn from NGF and maintained in media containing compound 1 at the concentrations indicated for 48 hours. Cellular viability was assayed using an MTS assay. (*=P<0.01 relative to no compound 1). Experiments were performed three times with identical results.
# Survival of neonatal primary sympathetic neurons is dependent on trophic support provided by Neuronal Growth Factor (NGF) (reviewed in (Young et al., 2004)).
# as §1
# [5] = system: HSP90 protein; test: STD 1H NMR spectroscopy binding to HSP90; settings: compound to protein ratio approximately 100:1, 20 mM sodium phosphate buffer pH 6.7
# Method: (§2) FIG. 9 is a STD 1H NMR Spectrum of Compound 1 and 20 with HSP90 protein. STD NMR experiments were performed at 19° C. on a Varian INNOVA 500 MHz spectrometer equipped with a triple resonance HCN cold probe. A 1D saturation transfer difference pulse sequence with internal subtraction via phase cycling was employed. Residual HDO signal was removed using a W5 WATERGATE pulse sequence, with a […] interpulse delay. On resonance irradiation of the protein was performed at −0.5 ppm, with off-resonance irradiation at 34 ppm. The irradiation power was (g/2p)B1=93 Hz applied through a train of 50 ms eburp1 pulses with a 1 ms delay between the pulses. The total presaturation time was 5.1 s. The relaxation delay was set to 0.1 s. A 30 ms spin-lock pulse with a strength of (g/2p)B1=4600 Hz was used to eliminate background protein signals. The total number of scans was between 1536, with a sweep width of 16 ppm. Spectra were multiplied by a 1 Hz exponential line-broadening function prior to Fourier transform. Compounds 1 (85 uM) and 20 (85 uM) and HSP90 protein (0.85 uM) in 20 mM sodium phosphate buffer (pH 6.7) was used. A) STD 1H NMR spectrum, B) preset reference, and C) STD reference-no saturation/difference.
# as §2, with “STD” for “FIG. 9 is a STD 1H NMR Spectrum of Compound 1 and 20 with HSP90 protein. STD”, “employed (Mayer and Meyer, JACS, 2001, 123, 6108-6117).” for “employed.”, “delay (Liu et. al, J. Magn. Res., 1998, 132, 125).” for “delay.”, “1536-2048,” for “1536,”, “transform.” for “transform. Compounds 1 (85 uM) and 20 (85 uM) and HSP90 protein (0.85 uM) in 20 mM sodium phosphate buffer (pH 6.7) was used. A) STD 1H NMR spectrum, B) preset reference, and C) STD reference-no saturation/difference.”
# The compound to protein ratio was fixed at approximately 100:1 in 20 mM sodium phosphate buffer (pH 6.7). Compound 20 was used as a reference compound to compare binding affinities of various compounds to HSP90 by comparing the relative intensity of NOE effects in the spectra of compounds 1 and 20 (see FIG. 9), compounds 2 and 20, compounds 5 and 20, compounds 13 and 20, and compounds 15 and 20 (near equamolar quantities of each) in the presence of HSP90 protein. Using the NOE signals for the imidazole proton, and comparing peak heights, the relative kd of the compound pairs were compared (see Meyer and Peters, T. Angew. Chem. Int. Ed. 2003, 42, 864). The kds of the compound pairs ranged from 1:1 to 8:1. These differences in binding affinities correlated to the potency of each respective compound's ability to rescue SCG neurons from NGF withdrawal as previously reported.
# [6] = system: HSP90; test: Photoaffinity-biotin labelling of PC12 protein extracts; type: binding; settings: 2 uM, 3 hours, UV 30 minutes, approximately 90 kDal band
# Method: HSP90 was also identified using the photoaffinity-biotinylated probe, compound 7. PC12 protein extracts were separated by SDS page. SDS was removed by incubation in 20% isopropanol and proteins were renatured by incubation in DTT and guanidine HCl. The gel was then incubated for 3 hours with 2 uM compound 7 and then photoactivated for 30 minutes using a UV crosslinker. Proteins were then transferred to nitrocellulose and biotin was detected with HRP-conjugated strepavidin.
# [7] = full body radiography
# Method: The induction of HSP70 was investigated in vivo by the treatment of rats with a single dose of Na-19 (SC, 30 mg/kg).
structure (smiles),measurement,setting,value
"Nc1ncnc2c1ncn2[C@@H]1O[C@H](COP(=O)(O)OP(=O)(O)OP(=O)(O)O)[C@@H](O)[C@H]1O [ATP, reference compound]",binding of HSP90 to gATP-Sepharose,[1],strongly inhibited
NS(=O)(=O)c1nn2cc(-c3ccc(OCC(=O)O)cc3)nc2s1 [Compound 3],HSP70 production,[2],failed to induce HSP70
same,protection from Adp75- or AdNRG-induced cell death,[3],do not protect
same,protection from NGF-withdrawal induced cell death,[4],do not protect
NS(=O)(=O)c1nn2cc(-c3ccc(NC(=O)c4ccccc4)cc3)nc2s1 [Compound 4],HSP70 production,[2],failed to induce HSP70
same,protection from Adp75- or AdNRG-induced cell death,[3],do not protect
same,protection from NGF-withdrawal induced cell death,[4],do not protect
NS(=O)(=O)c1nn2cc(-c3ccc(O)cc3)nc2s1 [Compound 5],binding to HSP90 protein by STD 1H NMR,[5],directly bind
[N-]=[N+]=Nc1c(F)c(F)c(-c2cn3nc(S(=O)(=O)CCNC(=O)CCCCC4SC[C@H]5NC(=O)N[C@@H]45)sc3n2)c(F)c1F (some centres unmarked) [Compound 7],photoaffinity labelled band,[6],consistent with binding to HSP90
NS(=O)(=O)c1nn2cc(-c3ccc4c(c3)OCCCO4)nc2s1 [Compound 12],binding to HSP90 protein by STD 1H NMR,[5],directly bind
COCCOCCOc1ccc(-c2cn3nc(S(N)(=O)=O)sc3n2)cc1 [Compound 13],binding to HSP90 protein by STD 1H NMR,[5],directly bind
CC(C)(C)c1ccc(-c2cn3nc(S(N)(=O)=O)sc3n2)cc1 [Compound 15],binding to HSP90 protein by STD 1H NMR,[5],directly bind
CC(=O)N1CCN(CC[S+]([O-])c2nn3cc(-c4ccccc4)nc3s2)CC1 (centres unmarked) [Compound 20],binding to HSP90 protein by STD 1H NMR,[5],Positive; also recorded: directly bind
"[NH-]S(=O)(=O)c1nn2[14cH]c(-c3ccc(-c4cccc(C(F)(F)F)c4)cc3)nc2s1.[Na+] [[^14C]—Na-19, [5-^14C]-6-(3′-(trifluoromethyl)biphenyl-4-yl)imidazo[2,1-b]-1,3,4-thiadiazole-2-sulfonamide Mono Sodium Salt]",radioactivity in sciatic nerve,[7],"significant, time dependent, radioactivity in sciatic nerve"
